A short description of the assay: mitochondrial fusion inhibitors, confirmation, cell-based, chemical genetic, wild-type and mutant (AID 1361). Conditions: Cell-based mitochondrial fusion phenotype, imaging.
Where [1] appears, read: mutant cells, measured here: mutant cell line IC50.

SMILES strings stand for the structures. Active and inactive are the calls of the source. The rule behind the calls is not given here. Some results are limits rather than exact numbers.

For orientation: IC50 means the concentration that gives 50% inhibition.

Take `CCOc1ccc(NCc2nnc(SCc3ccc(Cl)cc3)n2-c2ccccc2)cc1`: the IC50 reads like this: (WT cells) > 25 µM (inactive); under setting [1], more than 25 µM.

Turning to `Cc1cccc(NC(=S)N=Nc2c(O)[nH]c3ccccc23)c1`, the IC50 reads like this: (WT cells) > 25 µM (inactive); under setting [1], more than 25 µM.

`O=C(CCN1C(=O)/C(=C/c2cccs2)SC1=S)NC1=NCCS1`: the IC50 by setting is: (WT cells) 12.5 µM; under setting [1], more than 25 µM.

With `COc1ccccc1/C=C\C=N\n1c(-c2ccc(Cl)cc2Cl)n[nH]c1=S`, the half-inhibitory concentration (IC50) was 9.01 µM (WT cells) and more than 25 µM under setting [1].

Consider `FC(F)(F)c1cnc(N2CCC(=NOCc3ccc(Cl)cc3)CC2)c(Cl)c1`, for which the IC50 is 13.7 µM (WT cells) and more than 25 µM under setting [1].

As for `CC(C)CC(=O)NC(=S)N(Cc1ccccc1)Cc1ccccc1`, the IC50 was 19.2 µM (WT cells) and more than 25 µM under setting [1].

Regarding `CCn1ccnc1CN1CCc2c([nH]c3ccccc23)C1C1CCCCC1` (stereo not drawn), the concentration for half-maximal inhibition (IC50) is, setting by setting: (WT cells) 17.6 µM; under setting [1], more than 25 µM.

Regarding `O=C(CNC(=S)N(Cc1ccccc1)Cc1ccccc1F)NCc1ccc(Cl)cc1`, the IC50 is 5.67 µM (WT cells) and more than 25 µM under setting [1].

`O=C(OC(c1ccc(NS(=O)(=O)c2ccccc2)cc1)(C(F)(F)F)C(F)(F)F)c1ccccc1`: the IC50 was 18.2 µM (WT cells) and more than 25 µM under setting [1].

On to `CCOC(=O)c1c(NC(=O)C2CCN(S(=O)(=O)c3cccs3)CC2)sc(C)c1C`, for which the IC50 was > 25 µM (inactive) (WT cells) and more than 25 µM under setting [1].

For the molecule `CCC1Oc2ccc(C)cc2N(CC(=O)N(Cc2ccc(C)o2)C2CCCC2)C1=O` (stereo not drawn), the IC50 is, setting by setting: (WT cells) > 25 µM (inactive); under setting [1], more than 25 µM.

As for `CC1CC(C)(C)N2C(=O)C3(Nc4ccccc4S3)c3cccc1c32` (stereo not drawn), the IC50 was > 25 µM (inactive) (WT cells) and more than 25 µM under setting [1].

On to `CCOC(=O)c1sc(NC(=O)Nc2cccc(Cl)c2)cc1C`, for which the IC50 (WT cells) was 11.8 µM and the IC50 under setting [1] was more than 25 µM.

Take `O=C(Nc1ccc(C(O)(C(F)(F)F)C(F)(F)F)cc1)c1ccc(Cl)c([N+](=O)[O-])c1`: the IC50 (WT cells) was 18.8 µM and the IC50 under setting [1] was more than 25 µM.

`CC(C)CNC(=S)N1CCN(C(c2ccccc2)c2ccccc2)CC1`: the IC50 was 14.7 µM (WT cells) and more than 25 µM under setting [1].

Consider `CN1/C(=C\C(=O)Nc2cccc(Cl)c2)C(C)(C)c2ccccc21`, for which the IC50 reads like this: (WT cells) 9.74 µM; under setting [1], 24.7 µM.

Consider `COc1cccc(OC)c1OCCCCN1CCCC1`, for which the IC50 by setting is: (WT cells) > 25 µM (inactive); under setting [1], more than 25 µM.

For the molecule `O=C(N/N=C/c1c(Cl)cccc1Cl)c1n[nH]c2c1CCCC2`, the IC50 runs as follows: (WT cells) > 25 µM (inactive); under setting [1], more than 25 µM.

For `O=c1cc(N2CCCCC2)c(-c2ccccc2)nn1Cc1c(Cl)cccc1Cl`, the IC50 reads like this: (WT cells) 5.39 µM; under setting [1], more than 25 µM.

As for `C/C(=N\NC(=S)NCc1ccccc1)c1ccc2ccccc2c1OC(F)F`, the IC50 runs as follows: (WT cells) 7.44 µM; under setting [1], 25 µM.

In the case of `C=C(C)c1cccc(C(C)(C)NC(=O)Nc2ccc(Cl)cn2)c1`, the IC50 by setting is: (WT cells) 12.8 µM; under setting [1], more than 25 µM.

With `Cc1ncsc1C(=O)Nc1nc2c(s1)CC(C)CC2` (stereo not drawn), the IC50 is > 25 µM (inactive) (WT cells) and more than 25 µM under setting [1].

On to `C=CCC(C(=O)OC)(C(=O)OC)c1ccc([N+](=O)[O-])cn1`, for which the IC50 reads like this: (WT cells) > 25 µM (inactive); under setting [1], more than 25 µM.

On to `c1ccc(-c2[nH]c(-c3ccccc3)[n+](CC3CO3)c2-c2ccccc2)cc1` (stereo not drawn), for which the IC50 is, setting by setting: (WT cells) 18.8 µM; under setting [1], more than 25 µM.

Regarding `FC(F)(F)c1cc(-c2ccccc2)nc(NCc2cccs2)n1`, the IC50 reads like this: (WT cells) 18.8 µM; under setting [1], more than 25 µM.

Turning to `COc1ccc(S(=O)(=O)N2CCC[C@H]2C(=O)NC2=NCCS2)cc1`, the IC50 by setting is: (WT cells) > 25 µM (inactive); under setting [1], more than 25 µM.

For `N#C[C@H]1[C@H](c2ccccc2)[C@](C#N)(C(=O)c2ccccc2)[C@@H]2C=Cc3ccccc3N21`, the IC50 was > 25 µM (inactive) (WT cells) and more than 25 µM under setting [1].

Regarding `COC(=O)CNC(c1ccccc1)c1cc(C)ccc1NC(=O)c1cccc(Cl)c1` (stereo not drawn), the IC50 was 9.38 µM (WT cells) and more than 25 µM under setting [1].

On to `N#CC(c1ccc(Cl)cc1)(c1ncc(C(F)(F)F)cc1Cl)N1CCOCC1` (stereo not drawn), for which the IC50 by setting is: (WT cells) > 25 µM (inactive); under setting [1], more than 25 µM.

In the case of `Cc1ccc(Cl)cc1N1CCN(C(=O)c2cccc3c(=O)c(C)c(-c4ccccc4)oc23)CC1`, the IC50 by setting is: (WT cells) 9.75 µM; under setting [1], more than 25 µM.

Consider `Cn1c(Cc2ccccc2)nnc1SCC(=O)c1ccc(Br)s1`, for which the IC50 by setting is: (WT cells) > 25 µM (inactive); under setting [1], more than 12.5 µM.

In the case of `CCCCNC(=O)C1=C(N)C(C(=O)Nc2ccc(C)c(S(=O)(=O)N3CCCCC3)c2)SC1=Nc1ccc(C)cc1C` (stereo not drawn), the IC50 was > 25 µM (inactive) (WT cells) and more than 25 µM under setting [1].

With `O=C(N/N=C/C=C/c1ccccc1)C1CC1c1ccccc1` (stereo not drawn), the IC50 (WT cells) was > 25 µM (inactive) and the IC50 under setting [1] is more than 25 µM.

For the molecule `CC(Sc1ccc(Cl)cc1)C(=O)Nc1ccccc1-c1ccccc1` (stereo not drawn), the IC50 was 13 µM (WT cells) and more than 25 µM under setting [1].

Consider `Oc1cccc(C2c3[nH]c4ccccc4c3CCN2Cc2cnn(-c3ccccc3)c2)c1` (stereo not drawn), for which the IC50 was > 25 µM (inactive) (WT cells) and more than 25 µM under setting [1].

Consider `CCCOP(=O)(OCCC)C(Nc1cccc(C(F)(F)F)c1)c1ccc(C)cc1` (stereo not drawn), for which the IC50 was 11.2 µM (WT cells) and more than 25 µM under setting [1].

As to `Cn1c(=O)c(NC2CCCCC2)c2c3c(cccc31)C(=O)c1ccccc1-2`, the IC50 (WT cells) was 11 µM and the IC50 under setting [1] worked out at 21.1 µM.

`O=C(CS(=O)(=O)Cc1ccccc1)Nc1cccnc1`: the IC50 is, setting by setting: (WT cells) > 25 µM (inactive); under setting [1], more than 25 µM.

For the molecule `COc1ccccc1C(=O)NC(=S)/C=C1/N(C)c2ccccc2C1(C)C`, the IC50 reads like this: (WT cells) 10.8 µM; under setting [1], more than 25 µM.

On to `O=C(NCc1ccco1)c1cc(-c2ccccc2)on1`, for which the IC50 reads like this: (WT cells) > 25 µM (inactive); under setting [1], more than 25 µM.

As for `COC(=O)Cn1ccc(N(C)C)c(C#N)c1=O`, the IC50 runs as follows: (WT cells) > 25 µM (inactive); under setting [1], more than 25 µM.

As for `O=C(NCC1(c2ccccc2)CCCC1)C1(c2ccccc2)CCCC1`, the half-maximal inhibitory concentration (IC50) by setting is: (WT cells) 16.8 µM; under setting [1], more than 25 µM.

On to `CNC(=S)N1CCN(c2ccc([N+](=O)[O-])cc2)CC1`, for which the IC50 is > 25 µM (inactive) (WT cells) and more than 25 µM under setting [1].

Turning to `CC(=O)Nc1ccc(S(=O)(=O)N2CCN(C)CC2)cc1`, the IC50 is > 25 µM (inactive) (WT cells) and more than 25 µM under setting [1].

As for `Cc1ccc(CNC(=O)CCNC(=O)c2ccco2)cc1`, the IC50 is, setting by setting: (WT cells) > 25 µM (inactive); under setting [1], more than 25 µM.

As to `CCSc1ccc2cc(OC)ccc2[n+]1CC`, the IC50 was 23.1 µM (WT cells) and more than 25 µM under setting [1].

On to `CCc1ccc(C2=CC(c3cc(Br)ccc3F)n3ncnc3N2)cc1` (stereo not drawn), for which the 50% inhibitory concentration (IC50) by setting is: (WT cells) 23.7 µM; under setting [1], more than 25 µM.

`Cc1nc(N2CCCCC2)c2c(C)c(C(=O)Nc3ccccc3C(F)(F)F)sc2n1`: the IC50 by setting is: (WT cells) > 25 µM (inactive); under setting [1], more than 25 µM.

As for `Cc1cccc(-n2c(-c3csc4ccccc34)n[nH]c2=S)c1`, the IC50 by setting is: (WT cells) > 25 µM (inactive); under setting [1], more than 25 µM.

The values above are taken from PubChem BioAssay AID1361 (SRMLSC, 2008).
